According to PubChem BioAssay AID248 (DTP/NCI, 2004):
Where “and” joins values, the source holds several entries; their conditions need not be identical. Identical values can stand only once. Toxic doses and inconclusive results are not listed. Rule as the data show it: active = T/C of 150% or more; inactive = T/C below 125%.

System: L1210 leukemia ip in BDF1 mice, survival T/C
Test: NCI In Vivo Anticancer Drug Screen. Data for tumor model L1210 Leukemia (intraperitoneal) in B6D2F1 (BDF1) mice
Conditions: endpoint: mean survival time, higher = longer survival
Method in brief: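 Ratio derived from survival: compound-dosed mice over vehicle-dosed mice, all bearing a transplantable tumor.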

[1] = dose: 100.0 mg/kg/injection, schedule: Q01DX001 (ip), vehicle: other
[2] = dose: 100.0 mg/kg/injection, schedule: Q04DX003 (ip), vehicle: saline with Tween-80
[3] = dose: 200.0 mg/kg/injection, schedule: Q04DX003 (ip), vehicle: saline with Tween-80
[4] = dose: 400.0 mg/kg/injection, schedule: Q04DX003 (ip), vehicle: saline with Tween-80
[5] = dose: 100.0 mg/kg/injection, schedule: Q01DX009 (ip), vehicle: Klucel (hydroxypropylcellulose) (HPC)
[6] = dose: 100.0 mg/kg/injection, schedule: Q04DX003 (ip), vehicle: Klucel (hydroxypropylcellulose) (HPC)
[7] = dose: 200.0 mg/kg/injection, schedule: Q01DX009 (ip), vehicle: Klucel (hydroxypropylcellulose) (HPC)
[8] = dose: 200.0 mg/kg/injection, schedule: Q04DX003 (ip), vehicle: Klucel (hydroxypropylcellulose) (HPC)
[9] = dose: 400.0 mg/kg/injection, schedule: Q01DX009 (ip), vehicle: Klucel (hydroxypropylcellulose) (HPC)
[10] = dose: 400.0 mg/kg/injection, schedule: Q04DX003 (ip), vehicle: Klucel (hydroxypropylcellulose) (HPC)
[11] = dose: 100.0 mg/kg/injection, schedule: Q04DX002 (ip), vehicle: Klucel (hydroxypropylcellulose) (HPC)
[12] = dose: 200.0 mg/kg/injection, schedule: Q04DX002 (ip), vehicle: Klucel (hydroxypropylcellulose) (HPC)
[13] = dose: 100.0 mg/kg/injection, schedule: Q01DX009 (ip), vehicle: saline with Tween-80
[14] = dose: 200.0 mg/kg/injection, schedule: Q01DX009 (ip), vehicle: saline with Tween-80
[15] = dose: 400.0 mg/kg/injection, schedule: Q01DX009 (ip), vehicle: saline with Tween-80
[16] = dose: 100.0 mg/kg/injection, schedule: Q01DX001 (ip), vehicle: saline
[17] = dose: 200.0 mg/kg/injection, schedule: Q01DX001 (ip), vehicle: saline
[18] = dose: 400.0 mg/kg/injection, schedule: Q01DX001 (ip), vehicle: saline
[19] = dose: 50.0 mg/kg/injection, schedule: Q01DX009 (ip), vehicle: Klucel (hydroxypropylcellulose) (HPC)
[20] = dose: 100.0 mg/kg/injection, schedule: Q04DX003 (ip), vehicle: saline
[21] = dose: 200.0 mg/kg/injection, schedule: Q04DX003 (ip), vehicle: saline

Measured: T/C

CCC(CN)(c1ccccc1)c1ccccc1
inactive: dose: 50.0 mg/kg/injection, schedule: Q01DX001 (ip), vehicle: other 96 % of control | [1] 104 % of control | dose: 200.0 mg/kg/injection, schedule: Q01DX001 (ip), vehicle: other 102 % of control | dose: 400.0 mg/kg/injection, schedule: Q01DX001 (ip), vehicle: other 96 % of control

CCNC(=O)Oc1cccc(NC(=O)OC)c1
inactive: [2] 104 % of control | [3] 93 % of control | [4] 95 % of control

CCc1cc(C(C)(C)C)c(O)c(C(C)(C)C)c1
inactive: dose: 100.0 mg/kg/injection, schedule: Q01DX001 (ip), vehicle: saline with Tween-80 95 % of control | dose: 200.0 mg/kg/injection, schedule: Q01DX001 (ip), vehicle: saline with Tween-80 102 % of control | dose: 400.0 mg/kg/injection, schedule: Q01DX001 (ip), vehicle: saline with Tween-80 95 % of control

COc1ccc(CSC(=S)NNc2ccccc2)cc1
inactive: [5] 96 % of control | [6] 98 % of control | [7] 86 % of control | [8] 93 % of control | [9] 87 % of control | [10] 90 % of control

CC(C)(C)S(=O)(=O)CCCl
inactive: dose: 75.0 mg/kg/injection, schedule: Q01DX009 (ip), vehicle: Klucel (hydroxypropylcellulose) (HPC) 93 % of control | dose: 100.0 mg/kg/injection, schedule: Q01DX005 (ip), vehicle: Klucel (hydroxypropylcellulose) (HPC) 96 % of control | [11] 88 % of control | dose: 150.0 mg/kg/injection, schedule: Q01DX009 (ip), vehicle: Klucel (hydroxypropylcellulose) (HPC) 93 % of control | dose: 200.0 mg/kg/injection, schedule: Q01DX005 (ip), vehicle: Klucel (hydroxypropylcellulose) (HPC) 100 % of control | [12] 100 % of control | dose: 300.0 mg/kg/injection, schedule: Q01DX009 (ip), vehicle: Klucel (hydroxypropylcellulose) (HPC) 96 % of control | dose: 400.0 mg/kg/injection, schedule: Q01DX005 (ip), vehicle: Klucel (hydroxypropylcellulose) (HPC) 100 % of control | dose: 400.0 mg/kg/injection, schedule: Q04DX002 (ip), vehicle: Klucel (hydroxypropylcellulose) (HPC) 100 % of control

O=P(OCCCl)(OCCCl)C(c1ccccc1)(c1ccccc1)c1ccccc1
inactive: [5] 105 % of control | [7] 96 % of control | [9] 93 % of control

Cc1ccc(S(=O)(=O)Nc2ccccc2-c2nc3cc(Cl)ccc3c(=O)o2)cc1
inactive: [13] 86 % of control | [14] 87 % of control | [15] 89 % of control

C=C1C2CCC3(C)C(c4ccoc4)OC(=O)CC13OC1CC(=O)C(C)(C)C(CC(=O)OC)C12C (configuration not stated)
inactive: [16] 97 % of control | [17] 96 % of control | [18] 114 % of control

[CH3][Pb]([CH3])([CH3])[O]C(=O)C(F)(F)F
inactive: dose: 12.5 mg/kg/injection, schedule: Q04DX002 (ip), vehicle: saline 90 % of control

Nc1c(I)cc(C(=O)O)c(O)c1I
inactive: dose: 50.0 mg/kg/injection, schedule: Q01DX009 (ip), vehicle: saline with Tween-80 97 % of control | [13] 94 % of control | [2] 94 % of control | [14] 94 % of control | [3] 98 % of control

O=c1cc(-c2ccc(Cl)cc2)oc(-c2ccc(Cl)cc2)c1
inactive: [19] 94 % of control | [5] 93 % of control | [6] 89 % of control | [8] 92 % of control

CN(C)c1ccccc1C(=O)N/N=C\c1ccc(O)c(O)c1
inactive: [13] 87 % of control | dose: 100.0 mg/kg/injection, schedule: Q04DX002 (ip), vehicle: saline with Tween-80 94 % of control | [14] 87 % of control | dose: 200.0 mg/kg/injection, schedule: Q04DX002 (ip), vehicle: saline with Tween-80 94 % of control | [15] 90 % of control | dose: 400.0 mg/kg/injection, schedule: Q04DX002 (ip), vehicle: saline with Tween-80 90 % of control

CCOC(=O)Cc1ccc2c(c1)sc(=S)n2C
inactive: [6] 96 % of control | [8] 87 % of control | [10] 92 % of control

CC1CC2CCCC(O)=C2C(=O)O1 (configuration not stated)
inactive: [16] 102 % of control | [17] 102 % of control | [18] 105 % of control

CCCCCCCc1cc2ccccc2c2c(N)nc(N)nc12
inactive: dose: 12.0 mg/kg/injection, schedule: Q04DX003 (ip), vehicle: Klucel (hydroxypropylcellulose) (HPC) 105 % of control | dose: 25.0 mg/kg/injection, schedule: Q04DX003 (ip), vehicle: Klucel (hydroxypropylcellulose) (HPC) 93 % of control | dose: 50.0 mg/kg/injection, schedule: Q04DX003 (ip), vehicle: Klucel (hydroxypropylcellulose) (HPC) 98 % of control | dose: 100.0 mg/kg/injection, schedule: Q01DX001 (ip), vehicle: Klucel (hydroxypropylcellulose) (HPC) 90 % of control | [6] 107 % of control | dose: 200.0 mg/kg/injection, schedule: Q01DX001 (ip), vehicle: Klucel (hydroxypropylcellulose) (HPC) 96 % of control

CC1(c2ccccc2)CCc2ccccc21 (configuration not stated)
inactive: [2] 100 % of control | [3] 98 % of control | [4] 98 % of control

CCCCCCCCCCCCN1CCCC(O)C1 (configuration not stated)
inactive: [2] 93 % of control | [3] 88 % of control

CCC1COC(Nc2cccc3c2CCCC3)=N1 (configuration not stated)
inactive: dose: 50.0 mg/kg/injection, schedule: Q04DX003 (ip), vehicle: saline with Tween-80 92 % of control | [2] 92 % of control | [3] 92 % of control

CCCCCCC(=O)N1CCCC(C)C1 (configuration not stated)
inactive: [11] 98 % of control | [12] 106 % of control

CCC(Br)C(=O)O (configuration not stated)
inactive: dose: 50.0 mg/kg/injection, schedule: Q01DX009 (ip), vehicle: saline 96 % of control and 97 % of control | dose: 50.0 mg/kg/injection, schedule: Q04DX003 (ip), vehicle: saline 95 % of control | [16] 92 % of control | dose: 100.0 mg/kg/injection, schedule: Q01DX009 (ip), vehicle: saline 89 % of control and 91 % of control | dose: 100.0 mg/kg/injection, schedule: Q04DX002 (ip), vehicle: saline 101 % of control | [20] 100 % of control | [17] 96 % of control | dose: 200.0 mg/kg/injection, schedule: Q04DX002 (ip), vehicle: saline 105 % of control | [21] 90 % of control

CC(=O)c1c(C)[nH]c2ccc(NS(=O)(=O)N(C)C)cc12
inactive: dose: 75.0 mg/kg/injection, schedule: Q04DX003 (ip), vehicle: Klucel (hydroxypropylcellulose) (HPC) 96 % of control | dose: 150.0 mg/kg/injection, schedule: Q04DX003 (ip), vehicle: Klucel (hydroxypropylcellulose) (HPC) 102 % of control | dose: 300.0 mg/kg/injection, schedule: Q04DX003 (ip), vehicle: Klucel (hydroxypropylcellulose) (HPC) 100 % of control

O=S(O)c1ncnc2nc[nH]c12
inactive: [20] 101 % of control | [21] 106 % of control | dose: 400.0 mg/kg/injection, schedule: Q04DX003 (ip), vehicle: saline 95 % of control

CCc1c(CBr)c(=O)[nH]c2ccccc12
inactive: [1] 96 % of control

O=C(O)CSc1c([N+](=O)[O-])cc(C(F)(F)F)cc1[N+](=O)[O-]
inactive: [19] 101 % of control | [5] 101 % of control | [7] 95 % of control

O=S(=O)(O)CCCBr
inactive: dose: 100.0 mg/kg/injection, schedule: Q04DX003 (ip), vehicle: acetone 96 % of control | dose: 200.0 mg/kg/injection, schedule: Q04DX003 (ip), vehicle: acetone 95 % of control | dose: 400.0 mg/kg/injection, schedule: Q04DX003 (ip), vehicle: acetone 87 % of control

Fc1c(F)c(F)c(Oc2c(F)c(F)[c]([Sn]([c]3c(F)c(F)c(Oc4c(F)c(F)c(F)c(F)c4F)c(F)c3F)([c]3c(F)c(F)c(Oc4c(F)c(F)c(F)c(F)c4F)c(F)c3F)[c]3c(F)c(F)c(Oc4c(F)c(F)c(F)c(F)c4F)c(F)c3F)c(F)c2F)c(F)c1F
inactive: [5] 104 % of control | [6] 103 % of control | [7] 105 % of control | [8] 102 % of control | [9] 104 % of control | [10] 102 % of control

O=C(Nc1cccc(F)c1)Nc1ccccc1C(F)(F)F
inactive: [5] 97 % of control | [7] 91 % of control | [9] 94 % of control

COc1ccc2c(c1)C(CC(=O)O)=CC2
inactive: dose: 50.0 mg/kg/injection, schedule: Q01DX001 (ip), vehicle: saline 100 % of control | [16] 96 % of control | [17] 105 % of control | [18] 107 % of control
